Results published in patent US20240102100A1, “RIBOSOMAL RNAS 2'O-M[…] A NOVEL SOURCE OF […] FOR DIAGNOSIS, PROGNOSIS AND THERAPY OF CANCERS” (CENTRE LEON BERARD, priority 2020, published 2024).

Key:
hMEC epithelial cells = experiment: Cell viability monitored in real time (Incucyte), cell confluence as read-out, with increasing concentration of anisomycin; type: cell-based, human; settings: real-time monitoring
Source text: (§1) Cell lines and cell viability. The epithelial and mesenchymal cellular models were kindly provided by Alain Puisieux's team (17). Briefly, the human epithelial mammary cell (hMECs) were used to derive EMT-related cellular models. The hMEC cell line corresponds to epithelial cells (Lonza) that were immortalized by lentiviral transduction allowing hTERT overexpression. The hMEC cell line was then transduced with lentiviral vector to induce stable over-expression of the murine EMT-TF ZEB1 and to promote EMT and thus generates the hMEC-ZEB1 mesenchymal cell line. The hMEC cellular models were maintained in DM EM-F12 (Gibo) supplemented with 0.5 μg/ml hydrocortisone, 10 ng/ml EGF, […] insulin, 10% fetal calf serum, 100 μg/ml streptomycin and 100 units/ml of penicillin. Selective pressure was maintained with puromycin for hMEC-ZEB1. Cell viability was monitored in real-time using Incucyte Live-Cell analysis system (Statorius). Cells were plated in 96-well plates without selective pressure for 24 hrs before addition of the anisomycin antibiotic (range concentration 2-200 nM). DMSO was used as negative control.
(§2) At day 6, difference in cell viability was determined using cell confluence as a read-out.

[1] = test system: hMEC-ZEB1 mesenchymal cells; experiment: as above; type: cell-based, human
Source text: as §1, §2

## COc1ccc(C[C@H]2NC[C@H](O)[C@H]2OC(C)=O)cc1 [anisomycin]
hMEC epithelial cells
  change in cell morphology: no change in cell morphology was observed
[1]; hMEC-ZEB1 mesenchymal cells compared with hMEC epithelial cells, anisomycin 2-200 nM, day 6
  sensitivity to anisomycin treatment (cell viability, cell confluence as read-out): more sensitive
[1]; mesenchymal cells, increasing concentration of anisomycin, real-time monitoring
  change in cell morphology: no change in cell morphology was observed
